Experimental data reported in patent US9265746B2, “Method for cell-specific targeting” (priority 2006, dated 2016).

Tested on: KB-cell xenografts
Test: Biodistribution of folate radiotracers in athymic nude mice bearing KB-cell xenografts, with or without antifolate
Type: in vivo
Conditions: 4 h p.i.; antifolate named in label pre-injected 1 h before radiotracer
Protocol: Preparation of cells for in vivo experiments: For subcutaneous inoculation of the mice sub-confluent cells were harvested by treatment with EDTA (1 mM) in PBS (1×, pH 7.4). The cells were then washed once with PBS and pelleted by spinning at 1000×g for 5 min at 20° C. The cells were resuspended in PBS to obtain a concentration of 50×10^6 cells/mL.
In Vivo Studies. 4-5-week-old female, athymic nude mice (CD1-Foxn1/nu) were purchased from Charles River Laboratories (Sulzfeld, Germany). Mice were housed under conditions of controlled temperature (26° C.), humidity (68%) and daily light cycle (12 h light/12 h dark). The animals were fed with a folate-deficient rodent diet (to reduce their serum folate to a level near that of humans) (Mathias et al, J. Nucl. Med. 1996; 37:1003-08). After an acclimation period of 5-7 days, the mice were inoculated subcutaneously with the tumour cell suspension (5×10^6 cells) into the subcutis of the axilla. Radiotracer distribution studies were performed 12-14 days after tumour cell inoculation. The radiotracer (100 μL, 1a: 3.5 MBq/mL or 1b: 7 MBq/mL) was administered via a lateral tail vein. Antifolates (MTX, RTX and PMX) were dosed according to literature experiments at the upper limit of the tolerated dose (Li et al, Clin. Exp. Pharmacol. Physiol. 2004; 31:267-70; Pritchard et al, Clin. Cancer Res. 2000; 6:4389-95; Hughes et al, Journal of Clinical Oncology 2002; 20:3533-44; Aherne et al, Br. J. Cancer 1998; 77:221-26). MTX was supplemented to the drinking water (80 mg/mL) or intravenously injected (400 μg), 24 h, 2 h, 1 h, 30 min and 15 min previous to the administration of radiotracer 1a. RTX (100 μg) and PMX (400 μg) respectively were administered intravenously 2 h, 1 h, 30 min and 15 min previous to the radiotracer 1a. The animals were sacrificed and dissected 4 h p.i. of the radiotracer 1a. Additional biodistribution experiments were performed (30 min), 1 h, 4 h and 24 h post injection of the radiotracer 1a or 1b respectively with (antifolate) pre-treated animals 1 h previous to the experiment. The selected tissues were removed, weighted, and counted for radioactivity to determine distribution of radioactivity within the test animal. The results were tabulated as percentage of the injected dose per gram (% ID/g) of weight tissue, using reference counts from a definite sample of the original injectate.

SMILES	biodistribution blood [% ID/g]	biodistribution bone [% ID/g]	biodistribution contents of intest. [% ID/g]	biodistribution heart [% ID/g]	biodistribution intestines [% ID/g]	biodistribution kidney [% ID/g]	biodistribution liver [% ID/g]	biodistribution lung [% ID/g]	biodistribution muscle [% ID/g]	biodistribution spleen [% ID/g]	biodistribution stomach [% ID/g]	biodistribution tumour [% ID/g]	tumour-to-blood	tumour-to-kidney	tumour-to-liver
Nc1nc2ncc(CNc3ccc(C(=O)NC(CCC(=O)NCCCCCCn4cc5[n+](c4)[99Tc-5]4([C]#[O+])([C]#[O+])([C]#[O+])[NH2+]C(C5)C(=O)[O]4)C(=O)O)cc3)nc2c(=O)[nH]1 (stereo not drawn) [radiotracer 2a]	0.19 ± 0.18	0.82 ± 0.13	7.72 ± 4.36	0.80 ± 0.60	0.79 ± 0.43	42.02 ± 7.31	4.51 ± 1.29	0.85 ± 0.08	1.31 ± 0.28	0.30 ± 0.05	0.62 ± 0.22	3.72 ± 0.89	12.29 ± 4.22	0.09 ± 0.02	0.88 ± 0.38
Nc1nc2ncc(CNc3ccc(C(=O)NC(CCC(=O)NCCCCCC[N+]45Cc6cccc[n+]6[99Tc-5]4([C]#[O+])([C]#[O+])([C]#[O+])[n+]4ccccc4C5)C(=O)O)cc3)nc2c(=O)[nH]1 (stereo not drawn) [radiotracer 3a]	0.03 ± 0.01	0.16 ± 0.02	2.49 ± 12.10	0.20 ± 0.09	0.71 ± 0.40	7.11 ± 0.75	1.72 ± 2.04	0.20 ± 0.02	0.27 ± 0.01	0.08 ± 0.02	0.54 ± 0.58	0.82 ± 0.27	27.00 ± 14.60	0.12 ± 0.05	1.24 ± 1.03
